The conditions of data set [1]: pH 5-8; cited from earlier work.
Data set [2] is described as follows: Solubility of bilastine vs. HPβCD concentration and pH. Type of data set: physicochemical. Conditions: aqueous HPβCD solution, thermodynamic from solid. The method, then:
The concentration of bilastine in the solubility tests was determined by UV/vis spectrophotometer was a Cary® 60 UV-VIS.
The solubility of bilastine was determined at different concentrations of HPβCD and pH values.
The desired amount of HPβCD was dispersed in 40 ml of purified water in a 50 ml flask until complete dissolution and further diluted with water up to a final volume of 50 ml. Each solution was divided into three solutions (15 ml each) and the pH was adjusted with HCl 37% to the desired values (3, 5 or 7, respectively). Each solution was transferred again into three vials (5 mL solution each) in order to have several replicates for each sample. Bilastine was added in excess to each vial and the solutions were kept under magnetic stirring for 24 hours. After that time, the pH was adjusted again and they were kept stirring for another 24 hours. Finally, the samples were filtered through 0.45 μm filters (Biofil®, Nylon membrane, 13 mm Ø), the final pH was checked and the concentration was determined by UV spectrophotometry at a wavelength of 254 nm. The statistical analysis of the results was carried out using the Centurion XVI Statgraphics program version 16.1.15.

In brackets after ≈: the same amount, converted by molar mass.

Usually solubility stands for how much of the substance goes into solution per volume. Take `CCOCCn1c(C2CCN(CCc3ccc(C(C)(C)C(=O)O)cc3)CC2)nc2ccccc21` [Bilastine, 2-[4-(2-{4-[1-(2-ethoxyethyl)-1H-benzimidazol-2-yl]-1-piperidinyl}ethyl)phenyl]-2-methylpropanoic acid]: in data set [1], the “water solubility of bilastine” value is given as “about 0.5 mg/ml”. The solubility at 48 h in data set [2] (aqueous with cosolvent or surfactant or cyclodextrin, Entry 3: HPβCD 30 % w/v, final pH 4.14) was determined as 37.8 mg/mL (≈ 81.5 mM); in data set [2] (aqueous with cosolvent or surfactant or cyclodextrin, Entry 4: HPβCD 20 % w/v, final pH 5.16), 18.4 mg/mL (≈ 39.6 mM); in data set [2] (aqueous with cosolvent or surfactant or cyclodextrin, Entry 5: HPβCD 30 % w/v, final pH 5.13), 27.2 mg/mL (≈ 58.7 mM); in data set [2] (aqueous with cosolvent or surfactant or cyclodextrin, Entry 6: HPβCD 30 % w/v, final pH 7.15) it was 16.9 mg/mL (≈ 36.5 mM); in data set [2] (pH 4.6, aqueous with cosolvent or surfactant or cyclodextrin, Entry 2: HPβCD 20 % w/v, final pH 4.60) it was 35.1 mg/mL (≈ 75.7 mM); in data set [2] (pH 4.7, aqueous with cosolvent or surfactant or cyclodextrin, Entry 1: HPβCD 10 % w/v, final pH 4.70), 18.3 mg/mL (≈ 39.4 mM).

(Values after patent US20250228836A1, “BILASTINE COMPOSITION FOR ONCE-DAILY PARENTERAL ADMINISTRATION” (FAES FARMA, S.A., priority 2022, published 2025).)
